Assay results taken from PMC5218480 (PLoS ONE, 2017).

Tested on: MV-4-11 cells
Assay: Gene expression microarray analysis (Affymetrix PrimeView) and GSEA
Format: cell-based, human
Parameters: RFU PODN (11730768_x_at) / Fold change /veh PODN (11730768_x_at) / RFU LINC00158 (11744669_a_at) / Fold change /veh LINC00158 (11744669_a_at) / RFU DUSP10 (11751237_a_at) / Fold change /veh DUSP10 (11751237_a_at) / RFU ID3 (11757404_x_at) / Fold change /veh ID3 (11757404_x_at) / RFU PLEKHG5 (11737974_s_at) / Fold change /veh PLEKHG5 (11737974_s_at) / RFU LRRC4B (11730491_at) / Fold change /veh LRRC4B (11730491_at) / RFU GIMAP4 (11747438_a_at) / Fold change /veh GIMAP4 (11747438_a_at) / RFU KRT8 (11758183_x_at) / Fold change /veh KRT8 (11758183_x_at) / RFU CNN1 (11734310_a_at) / Fold change /veh CNN1 (11734310_a_at) / RFU VPS37D (11726825_at) / Fold change /veh VPS37D (11726825_at) / RFU C10orf10 (11716522_x_at) / Fold change /veh C10orf10 (11716522_x_at) / RFU KIR2DL2 /// KIR2DL4 /// KIR2DL5A /// KIR2DL5B /// KIR2DS1 /// KIR2DS2 /// KIR2DS3 /// KIR2DS4 /// KIR3DL3 /// KIR3DL3 /// KIR3DS1 (11738374_at) / Fold change /veh KIR2DL2 /// KIR2DL4 /// KIR2DL5A /// KIR2DL5B /// KIR2DS1 /// KIR2DS2 /// KIR2DS3 /// KIR2DS4 /// KIR3DL3 /// KIR3DL3 /// KIR3DS1 (11738374_at) / RFU C1QL1 (11718748_at) / Fold change /veh C1QL1 (11718748_at) / RFU TMPRSS4 (11747572_a_at) / Fold change /veh TMPRSS4 (11747572_a_at) / RFU HAMP (11756126_x_at) / Fold change /veh HAMP (11756126_x_at) / RFU RNFT2 (11725882_a_at) / Fold change /veh RNFT2 (11725882_a_at) / RFU NR4A2 (11747474_a_at) / Fold change /veh NR4A2 (11747474_a_at) / RFU ABCC12 (11746883_a_at) / Fold change /veh ABCC12 (11746883_a_at) / RFU TMEM136 (11760407_x_at) / Fold change /veh TMEM136 (11760407_x_at) / RFU CLDN22 /// WWC2 (11732394_at) / Fold change /veh CLDN22 /// WWC2 (11732394_at) / RFU HLA-DPB1 (11760878_x_at) / Fold change /veh HLA-DPB1 (11760878_x_at) / RFU SPINT1 (11716480_a_at) / Fold change /veh SPINT1 (11716480_a_at) / RFU GAP43 (11754022_s_at) / Fold change /veh GAP43 (11754022_s_at) / RFU A4GNT (11735810_at) / Fold change /veh A4GNT (11735810_at) / RFU PRB3 (11715151_x_at) / Fold change /veh PRB3 (11715151_x_at) / RFU TUBB4B (11761932_at) / Fold change /veh TUBB4B (11761932_at) / RFU CAPN14 (11732068_a_at) / Fold change /veh CAPN14 (11732068_a_at) / RFU TMCC2 (11721928_a_at) / Fold change /veh TMCC2 (11721928_a_at) / RFU IRGQ (11745062_a_at) / Fold change /veh IRGQ (11745062_a_at) / RFU FAM174B (11720279_a_at) / Fold change /veh FAM174B (11720279_a_at) / RFU TMPRSS4 (11748680_a_at) / Fold change /veh TMPRSS4 (11748680_a_at) / RFU FAM212B (11763350_a_at) / Fold change /veh FAM212B (11763350_a_at) / RFU PLEKHG5 (11743358_a_at) / Fold change /veh PLEKHG5 (11743358_a_at) / RFU ZSCAN30 (11745921_a_at) / Fold change /veh ZSCAN30 (11745921_a_at) / RFU CMKLR1 (11741424_a_at) / Fold change /veh CMKLR1 (11741424_a_at) / RFU LOC101060620 /// MAPK8IP1 (11723275_at) / Fold change /veh LOC101060620 /// MAPK8IP1 (11723275_at) / RFU SPTSSB (11747773_x_at) / Fold change /veh SPTSSB (11747773_x_at) / RFU PRSS12 (11739890_at) / Fold change /veh PRSS12 (11739890_at) / RFU BIN1 (11741810_x_at) / Fold change /veh BIN1 (11741810_x_at) / RFU WNT11 (11732464_a_at) / Fold change /veh WNT11 (11732464_a_at) / RFU C10orf10 (11716521_a_at) / Fold change /veh C10orf10 (11716521_a_at) / RFU C5orf56 (11738089_at) / Fold change /veh C5orf56 (11738089_at) / RFU CYB561 (11721691_x_at) / Fold change /veh CYB561 (11721691_x_at) / RFU ANKRD19P (11752326_a_at) / Fold change /veh ANKRD19P (11752326_a_at) / RFU OR2T12 /// OR2T33 /// OR2T8 (11738714_s_at) / Fold change /veh OR2T12 /// OR2T33 /// OR2T8 (11738714_s_at) / RFU VCAN (11748164_a_at) / Fold change /veh VCAN (11748164_a_at) / RFU JSRP1 (11732532_at) / Fold change /veh JSRP1 (11732532_at) / RFU KRTAP10-11 (11738290_x_at) / Fold change /veh KRTAP10-11 (11738290_x_at) / RFU MYO3A (11730013_a_at) / Fold change /veh MYO3A (11730013_a_at) / RFU EBF3 (11725865_a_at) / Fold change /veh EBF3 (11725865_a_at) / RFU CAMK2N1 (11719241_x_at) / Fold change /veh CAMK2N1 (11719241_x_at) / RFU C5orf56 (11738088_a_at) / Fold change /veh C5orf56 (11738088_a_at) / RFU OLFML3 (11715873_a_at) / Fold change /veh OLFML3 (11715873_a_at) / RFU LOC100653217 /// NTM (11731650_a_at) / Fold change /veh LOC100653217 /// NTM (11731650_a_at) / RFU MAPK11 (11762145_a_at) / Fold change /veh MAPK11 (11762145_a_at) / RFU FIZ1 (11724087_x_at) / Fold change /veh FIZ1 (11724087_x_at) / RFU OASL (11726364_x_at) / Fold change /veh OASL (11726364_x_at) / RFU SOX15 (11748057_x_at) / Fold change /veh SOX15 (11748057_x_at) / RFU CD79A (11719716_a_at) / Fold change /veh CD79A (11719716_a_at) / RFU HIST1H1D (11736915_at) / Fold change /veh HIST1H1D (11736915_at) / RFU CASKIN2 (11723855_a_at) / Fold change /veh CASKIN2 (11723855_a_at) / RFU LOC730098 (11760151_x_at) / Fold change /veh LOC730098 (11760151_x_at) / RFU OR4N2 (11742367_at) / Fold change /veh OR4N2 (11742367_at) / RFU PRRT2 (11749266_a_at) / Fold change /veh PRRT2 (11749266_a_at) / RFU SNX32 (11753110_a_at) / Fold change /veh SNX32 (11753110_a_at) / RFU CDHR5 (11726645_a_at) / Fold change /veh CDHR5 (11726645_a_at) / RFU RCAN1 (11760418_a_at) / Fold change /veh RCAN1 (11760418_a_at) / RFU FAM167A (11723789_a_at) / Fold change /veh FAM167A (11723789_a_at) / RFU FAM26E (11764081_at) / Fold change /veh FAM26E (11764081_at) / RFU ISYNA1 (11749810_s_at) / Fold change /veh ISYNA1 (11749810_s_at) / RFU ACY1 (11761880_at) / Fold change /veh ACY1 (11761880_at) / RFU 11764098_at / Fold change /veh 11764098_at / RFU SAMD14 (11745864_x_at) / Fold change /veh SAMD14 (11745864_x_at) / RFU NPB (11741838_a_at) / Fold change /veh NPB (11741838_a_at) / RFU TMPRSS6 (11731388_a_at) / Fold change /veh TMPRSS6 (11731388_a_at) / RFU KRTAP10-2 (11738614_at) / Fold change /veh KRTAP10-2 (11738614_at) / RFU ARHGAP8 /// PRR5-ARHGAP8 (11727945_x_at) / Fold change /veh ARHGAP8 /// PRR5-ARHGAP8 (11727945_x_at) / RFU KRTAP5-7 /// NADSYN1 (11734609_at) / Fold change /veh KRTAP5-7 /// NADSYN1 (11734609_at) / RFU RASL12 (11751679_a_at) / Fold change /veh RASL12 (11751679_a_at) / RFU CDKN2B (11736163_a_at) / Fold change /veh CDKN2B (11736163_a_at) / RFU PRF1 (11729649_at) / Fold change /veh PRF1 (11729649_at) / RFU, ZNF638 /// ZNF638-IT1 / Fold change vs veh, ZNF638 /// ZNF638-IT1 / RFU, PANK3 / Fold change vs veh, PANK3 / RFU, SH3YL1 / Fold change vs veh, SH3YL1 / RFU, ZEB2 / Fold change vs veh, ZEB2 / RFU, NRIP1 / Fold change vs veh, NRIP1 / RFU, PTTG1IP / Fold change vs veh, PTTG1IP / RFU, CAPN2 / Fold change vs veh, CAPN2 / RFU, MED14 / Fold change vs veh, MED14 / RFU, SNORA58 / Fold change vs veh, SNORA58 / RFU, C1orf63 / Fold change vs veh, C1orf63 / RFU, LRRFIP1 / Fold change vs veh, LRRFIP1 / RFU, NDUFAF7 / Fold change vs veh, NDUFAF7 / RFU, SLC12A2 / Fold change vs veh, SLC12A2 / RFU, IBTK / Fold change vs veh, IBTK / RFU, ESF1 / Fold change vs veh, ESF1 / Fold change vs veh, TMEM50B / RFU, TAOK1 / Fold change vs veh, TAOK1 / RFU, ACBD3 / Fold change vs veh, ACBD3 / RFU, TMA16 / Fold change vs veh, TMA16 / RFU, RWDD3 / Fold change vs veh, RWDD3 / RFU, BCAT1 / Fold change vs veh, BCAT1 / RFU, EDEM3 / Fold change vs veh, EDEM3 / RFU, TMEM33 / Fold change vs veh, TMEM33 / RFU, WDR75 / Fold change vs veh, WDR75 / RFU, AHCTF1 / Fold change vs veh, AHCTF1 / RFU, TFRC / Fold change vs veh, TFRC / RFU, ZDHHC17 / Fold change vs veh, ZDHHC17 / RFU, NOM1 / Fold change vs veh, NOM1 / RFU, ARL8B / Fold change vs veh, ARL8B / RFU, ZBTB11 / Fold change vs veh, ZBTB11 / RFU, TAMM41 / Fold change vs veh, TAMM41 / RFU, KIAA1704 /// LOC100996395 / Fold change vs veh, KIAA1704 /// LOC100996395 / RFU, ING1 / Fold change vs veh, ING1 / RFU, TRMT61B / Fold change vs veh, TRMT61B / RFU, FUBP3 / Fold change vs veh, FUBP3 / RFU, TP53 / Fold change vs veh, TP53 / RFU, TNKS2 / Fold change vs veh, TNKS2 / RFU, ZFP14 / Fold change vs veh, ZFP14 / RFU, ACTR2 / Fold change vs veh, ACTR2 / RFU, PPP3R1 / Fold change vs veh, PPP3R1 / RFU, PIK3R1 / Fold change vs veh, PIK3R1 / RFU, HNRNPA1 / Fold change vs veh, HNRNPA1 / RFU, RNF170 / Fold change vs veh, RNF170 / RFU, ZNF28 / Fold change vs veh, ZNF28 / RFU, RNGTT / Fold change vs veh, RNGTT / RFU, OGT / Fold change vs veh, OGT / RFU, BRD1 / Fold change vs veh, BRD1 / RFU, MARS / Fold change vs veh, MARS / RFU, ZNF655 / Fold change vs veh, ZNF655 / RFU, FAHD1 / Fold change vs veh, FAHD1 / RFU, BDP1 / Fold change vs veh, BDP1 / RFU, LRRCC1 / Fold change vs veh, LRRCC1 / RFU, ARID1A / Fold change vs veh, ARID1A / RFU, ZNF146 / Fold change vs veh, ZNF146 / RFU, ZNF330 / Fold change vs veh, ZNF330 / RFU, GPN3 / Fold change vs veh, GPN3 / RFU, C9orf123 / Fold change vs veh, C9orf123 / RFU, N4BP2L2 / Fold change vs veh, N4BP2L2 / RFU, ARFIP1 / Fold change vs veh, ARFIP1 / RFU, FAM179B / Fold change vs veh, FAM179B / RFU, BCL10 / Fold change vs veh, BCL10 / RFU, UHRF1BP1L / Fold change vs veh, UHRF1BP1L / RFU, BET1 / Fold change vs veh, BET1 / RFU, CNOT2 / Fold change vs veh, CNOT2 / RFU, ZNF268 / Fold change vs veh, ZNF268 / Fold change vs veh, ZNF507 / RFU, DGCR2 / Fold change vs veh, DGCR2 / RFU, WDSUB1 / Fold change vs veh, WDSUB1 / Fold change vs veh, HSP90B1 /// MIR3652 / RFU, ADSS / Fold change vs veh, ADSS / RFU, GK / Fold change vs veh, GK / RFU, ZNF148 / Fold change vs veh, ZNF148 / RFU, TAF9 / Fold change vs veh, TAF9 / RFU, SLC1A5 / Fold change vs veh, SLC1A5 / RFU, SLMO2 / Fold change vs veh, SLMO2 / RFU, ABCC4 / Fold change vs veh, ABCC4 / RFU, LOC101060439 /// RAP1B / Fold change vs veh, LOC101060439 /// RAP1B / RFU, RFX7 / Fold change vs veh, RFX7 / RFU, GTPBP10 / Fold change vs veh, GTPBP10 / RFU, CNEP1R1 / Fold change vs veh, CNEP1R1 / RFU, BIVM-ERCC5 /// ERCC5 / Fold change vs veh, BIVM-ERCC5 /// ERCC5 / RFU, ILF3 / Fold change vs veh, ILF3 / RFU 11762660_at / Fold change /veh 11762660_at / RFU VCAN (11757783_s_at) / Fold change /veh VCAN (11757783_s_at) / RFU DDX43 (11728927_at) / Fold change /veh DDX43 (11728927_at) / RFU KRT8 (11758188_x_at) / Fold change /veh KRT8 (11758188_x_at) / RFU NKD1 (11759106_at) / Fold change /veh NKD1 (11759106_at) / RFU SRD5A1 (11742802_a_at) / Fold change /veh SRD5A1 (11742802_a_at) / RFU TPSAB1 /// TPSB2 (11721975_s_at) / Fold change /veh TPSAB1 /// TPSB2 (11721975_s_at) / RFU GSTM3 (11746129_a_at) / Fold change /veh GSTM3 (11746129_a_at) / RFU IL23R (11737362_x_at) / Fold change /veh IL23R (11737362_x_at) / RFU TMEM51 (11727254_a_at) / Fold change /veh TMEM51 (11727254_a_at) / RFU PIWIL2 (11732686_x_at) / Fold change /veh PIWIL2 (11732686_x_at) / RFU ORM1 (11744905_x_at) / Fold change /veh ORM1 (11744905_x_at) / RFU CCDC152 (11743942_at) / Fold change /veh CCDC152 (11743942_at) / RFU ECM1 (11717891_a_at) / Fold change /veh ECM1 (11717891_a_at) / RFU IL23R (11748794_a_at) / Fold change /veh IL23R (11748794_a_at) / RFU TNFAIP8L3 (11732012_x_at) / Fold change /veh TNFAIP8L3 (11732012_x_at) / RFU MBOAT4 (11741988_at) / Fold change /veh MBOAT4 (11741988_at) / RFU 11764193_at / Fold change /veh 11764193_at / RFU TMEM53 (11763286_at) / Fold change /veh TMEM53 (11763286_at) / RFU MAGEB2 (11727129_at) / Fold change /veh MAGEB2 (11727129_at) / RFU TMEM200A (11744735_a_at) / Fold change /veh TMEM200A (11744735_a_at) / RFU CCDC152 (11751479_a_at) / Fold change /veh CCDC152 (11751479_a_at) / RFU FAM211A (11726209_a_at) / Fold change /veh FAM211A (11726209_a_at) / RFU RGS16 (11746705_a_at) / Fold change /veh RGS16 (11746705_a_at) / RFU VCAN (11755009_s_at) / Fold change /veh VCAN (11755009_s_at) / RFU RHOB (11743442_s_at) / Fold change /veh RHOB (11743442_s_at) / RFU RGS16 (11720943_a_at) / Fold change /veh RGS16 (11720943_a_at) / RFU RGS16 (11720944_at) / Fold change /veh RGS16 (11720944_at) / RFU, VPS4B / Fold change vs veh, VPS4B / RFU, CREB1 / Fold change vs veh, CREB1 / RFU, DNAJC13 / Fold change vs veh, DNAJC13 / RFU, GNAQ / Fold change vs veh, GNAQ / RFU, CDK5R1 / Fold change vs veh, CDK5R1 / RFU, ZRANB3 / Fold change vs veh, ZRANB3 / RFU, CUL4A / Fold change vs veh, CUL4A / RFU, CCNY / Fold change vs veh, CCNY / RFU, UFL1 / Fold change vs veh, UFL1 / RFU, COG3 / Fold change vs veh, COG3 / RFU, DIAPH2 / Fold change vs veh, DIAPH2 / RFU, SKA2 / Fold change vs veh, SKA2 / RFU, AFF3 / Fold change vs veh, AFF3 / RFU, LMF1 / Fold change vs veh, LMF1 / RFU, IPO11 / Fold change vs veh, IPO11 / RFU, DFFB / Fold change vs veh, DFFB / RFU, FOXP1 / Fold change vs veh, FOXP1 / RFU, CARD8 / Fold change vs veh, CARD8 / RFU, STRN3 / Fold change vs veh, STRN3 / RFU, ADK / Fold change vs veh, ADK / RFU, RASSF2 / Fold change vs veh, RASSF2 / RFU, WIPF1 / Fold change vs veh, WIPF1 / RFU, LARP1B / Fold change vs veh, LARP1B / RFU, RASA1 / Fold change vs veh, RASA1 / RFU, RB1 / Fold change vs veh, RB1 / RFU, PPFIA1 / Fold change vs veh, PPFIA1 / RFU, MAT2A / Fold change vs veh, MAT2A / RFU, CCT5 / Fold change vs veh, CCT5 / RFU, WDR92 / Fold change vs veh, WDR92 / RFU, CUX1 / Fold change vs veh, CUX1 / RFU, TTC7A / Fold change vs veh, TTC7A / RFU, TMEM135 / Fold change vs veh, TMEM135 / RFU, DEPTOR / Fold change vs veh, DEPTOR / RFU, CPM / Fold change vs veh, CPM / RFU, DNAJB6 / Fold change vs veh, DNAJB6 / RFU, CACNA2D3 / Fold change vs veh, CACNA2D3 / RFU, DTX4 / Fold change vs veh, DTX4 / RFU, TFCP2 / Fold change vs veh, TFCP2 / RFU, GMCL1 /// GMCL1P1 / Fold change vs veh, GMCL1 /// GMCL1P1 / RFU, AEBP2 / Fold change vs veh, AEBP2 / RFU, SNHG1 /// SNORD22 /// SNORD25 /// SNORD26 /// SNORD27 /// SNORD28 /// SNORD29 /// SNORD31 / Fold change vs veh, SNHG1 /// SNORD22 /// SNORD25 /// SNORD26 /// SNORD27 /// SNORD28 /// SNORD29 /// SNORD31 / Fold change (Aza/veh), C12orf56 (ProbeSet 11735607_a_at) / Fold change (ACY-1035/veh), C12orf56 (ProbeSet 11735607_a_at) / Fold change (Aza/veh), FGFR1OP (ProbeSet 11751329_s_at) / Fold change (ACY-1035/veh), FGFR1OP (ProbeSet 11751329_s_at) / Fold change (Aza/veh), VPS36 (ProbeSet 11739960_a_at) / Fold change (ACY-1035/veh), VPS36 (ProbeSet 11739960_a_at) / RFU SYPL1 (11715823_x_at) / Fold change /veh SYPL1 (11715823_x_at) / RFU IGFBP7 (11715501_s_at) / Fold change /veh IGFBP7 (11715501_s_at) / RFU REEP3 (11722064_at) / Fold change /veh REEP3 (11722064_at) / RFU IGLL1 (11728026_x_at) / Fold change /veh IGLL1 (11728026_x_at): dose or concentration left out as unconfirmed
Details: MV-4-11 cells, 48 hours

SMILES: Nc1ccc(-c2cccs2)cc1NC(=O)c1ccc2c(c1)cc(C1CC1)n2CCN1CCOCC1 [ACY-1035]
- Fold change /veh SRD5A1 (11742802_a_at): 1.16
